The results in this text go back to a melting point compilation (Tetko et al.; mined from patent text by program, amines drawn as free bases though some values may be those of a salt).

Molecules are shown by their SMILES.

Compound `COc1ccc2c(c1)c(=O)n1nc(C#N)cc1n2C` had a melting point of 316 to 320 °C. For `CC(C)C[C@@H](CO)NC(=O)[C@H](Cc1c[nH]cn1)NC(=O)[C@H](Cc1cccc2ccccc12)NC(=O)OCC1c2ccccc2-c2ccccc21` the value was 118 to 120 °C; for `CO[C@H]1CCCC[C@@]1(OC)c1cccc(OCc2ccc3ccccc3c2)c1` (racemic), 93 to 94 °C. In turn, `CCN1C(=O)C(C)(C)C(=O)N(C)c2cc(CCN(CCn3cc(C)c4occc4c3=O)Cc3cnccc3C)ccc21` yielded a melting point of 165 to 166 °C.

Turning to `CCCCCCN(CCCCCC)c1c(N[C@@H](Cc2ccc(NC(=O)c3ccccc3)cc2)C(=O)O)c(=O)c1=O`, the melting point is 95 to 100 °C.

`CC(NC(=O)N(Cc1csc(C(C)C)n1)C1CC1)C(=O)NC(Cc1ccccc1)CC(O)C(Cc1ccccc1)NC(=O)OCc1cncs1` (centres undefined) gave a melting point of 65 to 67 °C. For `Cc1c(F)cccc1NN` the value was 69 °C; for `CCC12OC[C@@H](O1)[C@@H](O)C[C@H]2OC`, 43 to 44 °C. For `COc1ccc(COCc2nc(C(C)C)c(Sc3cc(Cl)cc(Cl)c3)n2CC(C)=O)cc1` the value was 87 to 90 °C; for `N#Cc1ccc(-c2cn(-c3ccc(Br)cc3)cn2)cc1`, 178 to 185 °C.

`CCCCCc1nnc(Sc2cc(O)c(C(C)(C)CC(C)(C)C)cc2O)n1-c1ccccc1` gave a melting point of 198 °C. For `O=c1cccc(-c2ccc(Cl)cc2)[nH]1` the value was 200 to 203 °C; for `O=C(Nc1c(OCc2ccccc2)cc(Br)cc1[N+](=O)[O-])C1CC1`, 191 °C; for `Cc1nn(C(=O)Oc2ccccc2)c(=O)n1N`, 175 °C. `Fc1ccc(F)c(CN2CCNc3ncc(-c4ccc(N5CCOCC5)cc4)cc32)c1Cl` displayed a melting point of 217 to 219 °C. In the case of `N#Cc1cccc(CCc2n[nH]c3c2c(=O)n(-c2ccccc2)c2ncccc32)c1` it was 220 to 224 °C. For `Clc1cc(Cl)c(-n2nccc2Cl)c(Cl)c1` the value was 96 °C.

`Cc1[nH]c(=S)[nH]c1C(=O)c1ccccc1` yielded a melting point of 268 to 269 °C.

The compound `Cc1cc(-c2ccc(Cl)cc2)nc(-c2ccnc(-c3cccc(S(N)(=O)=O)c3)c2)n1` yielded a melting point of 224 °C.

For `COc1ccc(C(=O)Nc2ccc(F)c(F)c2)cc1NCc1ccccc1`, the melting point lay in the range of 176 to 178 °C.

`C#CC1(OCc2ccc(Cl)cc2F)CCN(C(C)=O)CC1` yielded a melting point of 70 to 74 °C. Compound `COC(=O)c1ccc(Cn2c(=O)c3cc(C(=O)NCc4ccc(OC)cc4)sc3n(C)c2=O)cc1` registered a melting point of 235 to 237 °C. In the case of `CO[C@@H]1C[C@H](C(=O)Nc2ccc(N3CCOCC3=O)cc2)N(C(=O)Nc2ccc(Cl)cc2)C1` it was 133 °C; in that of `O=C(O)C(c1ccc(Cl)cc1)c1ccc(-n2ncc(=O)[nH]c2=O)cc1Cl` (centres undefined), 196 °C; in that of `CN(C)Cc1nnc2n1-c1ccccc1C(c1ccccc1Cl)=NC2`, 143 to 145 °C.

Take `CCCCOc1nc(-c2ccco2)c2ncn(Cc3ccc(OC)cc3)c2n1`: the melting point stood at 113 °C. In the case of `CC1(C)CCC(C)(C)c2cc(C(F)C(=O)O)ccc21` (centres undefined) it was 127 to 128 °C; in that of `Cc1ccc(C=C(C#N)S(=O)(=O)c2ccccc2)cc1`, 145 to 147 °C; in that of `CCOc1ccc2c(c1)n(C1CCCCC1)c(=O)n2S(=O)(=O)c1ccc(C(=O)NC(C)(C)CC)cc1OC`, 219 °C. In the case of `CCCCNS(=O)(=O)NC(=O)OCc1ccc(OCCOC)cc1Oc1ncc(C(F)(F)F)cc1Cl` it was 164 to 165 °C. `N#CCc1cccc2oc(Br)c(-c3ccccc3)c12` gave a melting point of 131 to 133 °C. `CC1(C)OC(=S)Nc2ccc(-c3cc(C#N)cs3)cc21` yielded a melting point of 258 to 259 °C. With `O=C1C(=O)c2ccccc2C2=C1SCC(CN1CCC(O)CC1)O2` (centres undefined), the melting point was 98 to 100 °C. `CS(=O)(=O)c1nccc(-n2nnc3ccccc32)n1` registered a melting point of 202 °C.

For the compound `Cc1cn(Cc2ccc(F)cc2)c(C)c1C(=O)CC(=O)C(=O)O`, the melting point is 184 to 185 °C.

`CC1CN(C2=NC(=O)C(=Cc3cccc(-c4cc(F)c(O)c(C56CC7CC(CC(C7)C5)C6)c4)c3)S2)CC(C)O1` (centres undefined) yielded a melting point of 262 to 264 °C. In the case of `COc1cc2c(cc1Nc1ncc(Cl)c(Nc3ccc(N4CCOCC4)cc3OC)n1)C(C)(C)CCC(=O)N2` it was 246 to 248 °C; in that of `CC(C)c1ccc(-c2nc(-c3cccc(C(=O)O)c3)cs2)cc1`, 193 to 195 °C; in that of `CC12CC(=O)NN=C1c1ccc(C#N)cc1C2` (centres undefined), 254 °C. For `CC(C)CCc1c(-c2ccc(S(N)(=O)=O)cc2)cnn(-c2cccc(Cl)c2)c1=O` the value was 167 to 170 °C; for `COCCc1nc2c(N)nc3ccccc3c2n1CCCCNC(=O)c1ccc(-n2cccc2)nc1`, 77 to 80 °C; for `CC(C)N(C(=O)CN1C(=O)CC(=O)N(c2ccccc2)c2ccccc21)c1ccc(C(F)(F)F)cc1`, 186 to 188 °C. In turn, `O=C(CSc1ccccc1)NNC(=O)N1Cc2ccccc2Oc2ccc(Cl)cc21` showed a melting point of 172 to 175 °C. In the case of `COc1nc2cc([N+](=O)[O-])cc(C=O)c2nc1OC` it was 147 to 149 °C; in that of `CCC(C)NC1=NS(=O)(=O)c2cc(C(=O)O)ccc2N1` (centres undefined), more than 310 °C; in that of `COc1ccc(-c2cc(OCC3CO3)c3ccccc3n2)cc1` (racemic), 100 to 106 °C. For `CCCCCCCCCCCCCC(=O)Nc1ccc(OC)c(Nc2cc(=O)n(-c3c(Cl)cc(Cl)cc3Cl)[nH]2)c1` the value was 89 to 93 °C; for `COC(=O)C(C)(C)Cc1ccc2oc(-c3nc(C(C)(C)C)cs3)cc2c1`, 42 to 43 °C. For `CCc1ccc(OC)c(-c2csc(NC(=O)c3ccc(C(=O)NCCN4CCCC4)cc3)n2)c1` the value was 170 °C; for `Oc1ccc(Oc2ccc(OC(F)(F)F)cc2)cc1`, 44 to 46 °C. Compound `CCOc1ccc([N+](=O)[O-])c(C=C[N+](=O)[O-])c1OCc1ccccc1` showed a melting point of 110 °C.

The compound `Cc1cc(NCC(O)CO)c2ccccc2n1` (centres undefined) yielded a melting point of 167 to 168 °C. In the case of `CC1(C)CC(N2C(=O)c3ccc(C(=O)OCC(O)c4ccccc4)cc3C2=O)CC(C)(C)N1` (centres undefined) it was 144 to 146 °C; in that of `COc1ccc(/C(=C\C=C\C(=O)Oc2ccc([N+](=O)[O-])cc2)c2cccnc2)cc1`, 54 to 56 °C. For `N=c1sc2cc(OC(F)(F)F)ccc2n1CCSc1ncccn1` the value was 110 °C; for `COc1ccc(N(N)c2ncnc3cc(Cl)ccc23)cc1`, 124 to 127 °C; for `CCC(Oc1cc(Cl)cc(Cl)c1)C(=O)NC(C)(C)C#CCCO` (centres undefined), 104 to 106 °C. As for `COc1ccc2c(c1)CCC1C2C(OC(C)=O)CC2(C)C(OC(C)=O)CCC12` (centres undefined), the melting point was in the range of 214 to 215 °C. For `CC(=O)Nc1c([N+](=O)[O-])cc(F)c(F)c1F` the value was 96 to 97 °C. For `Cc1ccccc1C(=O)Nc1ccc(-n2nc(C(F)(F)F)cc2C2CC2)cc1` the value was 143 to 146 °C.

As for `CSc1c(C)n(C)c2ccccc12`, the melting point lay within 50 to 52 °C. Turning to `CC(C)(C)C1CC(=CO)C(Cl)=C(C=O)C1` (centres undefined), the melting point lay within 154 to 157 °C. For `COC(=O)c1ccnc(N2CCN(Cc3cccnc3)C2=O)c1` the value was 165 to 167 °C; for `C[C@@H](NC(=O)c1csc(-c2cccnc2)n1)[C@](O)(Cn1cncn1)c1ccc(F)cc1F`, 182 to 183 °C; for `O=C(CCCCCCC(=O)c1ccc(F)cc1)c1ccc(F)cc1`, 123 to 124 °C. In turn, `Cc1nc2cc(CN3CCN(C(c4ccccc4)c4ccccc4)CC3)ccc2n1C` yielded a melting point of 206 °C. For `CNC(=O)Nc1coc2ccccc2c1=O` the value was 254 °C; for `C[C@@H](NC(=O)c1cncc(-c2ccc(Cl)cc2)c1)[C@](O)(Cn1cncn1)c1ccc(F)cc1F`, 93 to 101 °C. For `O=Cc1cnc2sc3cc(F)ccc3n12` the value was 182 to 183 °C; for `CC(=O)C(=O)N[C@H](CO[N+](=O)[O-])Cc1ccccc1`, 72 to 75 °C. Turning to `COC(=O)c1cc(C(=O)N[C@@H](Cc2ccccc2)[C@H]2CN(C3(c4cccc(C(F)(F)F)c4)CC3)C(=O)O2)n2c1CN(C(=O)OC(C)(C)C)CC2`, the melting point was determined as 106 °C.

`O=C(O)CC(Cc1ccccc1)N1C(=O)c2ccccc2C1=O` (centres undefined) had a melting point of 123 to 124 °C. In the case of `CC(C)(C)OC(=O)NC(Cc1c[nH]c2ccccc12)C(=O)CCc1cc(C(F)(F)F)cc(C(F)(F)F)c1` (centres undefined) it was 138 to 140 °C; in that of `O=C1NC(=O)C(Sc2ccccn2)=C1Sc1ccccn1`, 70 to 72 °C. In the case of `CCOC(=O)c1cc2cc(OCCCCCBr)ccc2o1` it was 31 °C. In the case of `CCc1nc(-c2cccc(C(=O)OC)c2)c(-c2ccnc(N)c2)s1` it was 173 to 174 °C; in that of `Cc1ccc(S(=O)(=O)Nc2cccc3ccc(Oc4ccc5nc(COc6ccc(CC7SC(=O)NC7=O)cc6)n(C)c5c4)cc23)cc1` (centres undefined), 137 to 144 °C; in that of `CCOC(=O)c1cnc2n(c1=O)CC(C)CC2=NNc1ccccc1` (centres undefined), 165 to 167 °C. `COc1cc(O)c2c(=O)c(OC)c(-c3ccc(OC4OC(CO)C(O)C(O)C4O)c(OC)c3)oc2c1` (centres undefined) registered a melting point of 203 to 204 °C. For `COCCOc1ccc(/C=C/C(=O)O)c(OCc2ccc(Cl)cc2Cl)c1` the value was 176 to 178 °C; for `COC(=O)COc1c(Br)cc(-c2c3ccccc3c(Br)c3oc4ccccc4c23)cc1Br`, 188 to 189 °C. For `CS(=O)(=O)c1cc(C(=O)O)cc(N=Cc2ccco2)c1Cl` the value was 221 °C; for `COC(=O)C1=C(NC(=O)Nc2ccccc2)CSC1`, 182 to 184 °C. In the case of `C[C@]12CC[C@@H]3c4ccc(O)cc4CC[C@H]3[C@@H]1CCC2=C(F)F` it was 154 to 156 °C.

By melting point is commonly meant the temperature, or range, at which the solid turns liquid.
